From US12331121B2, “Efflux pump-cancer antigen multi-specific antibodies and compositions, reagents, kits and methods related thereto” (William Robert Arathoon Living Trust Dated August 29, 2016, priority 2019, dated 2025)

Key:
naïve 293T cells = test: Enhanced cell killing (chemosensitization) of naïve 293T cells with chemotherapeutic titration; type: cell-based, human
Protocol: HEK 293T, MCF-7, N6ADR and SKNF7 cell lines expressing Pgp were obtained from the American Type Culture Collection. N6/ADR cells is also referred to as NALM6/ADR cells. All cell lines and lines derived from them were maintained in RPMI 1640 or DMEM supplemented with up to 10% fetal bovine serum (Sigma), nonessential amino acids, and 2 mmol/L L-glutamine at 37° C. and 5% CO2 in a humidified incubator (unless otherwise indicated). Cells were used as supplied or were modified to overexpress (Ox) Pgp or were subject to having Pgp expression knocked down (KD) with lentiviral-mediated short hairpin RNA or knock out (KO) of the functional CD47 gene by CRISPR/Cas-mediated knock out technology essentially as described (Cong, L. et al. (2013) Science 339, 819-823). For vincristine and paclitaxel IC50 determination, cells were plated in normal growth medium and allowed to adhere overnight. Paclitaxel or vincristine (Sigma) were added in a dilution series and any modulators were added within ranges of 0 to 500 μM/L. Cell viability was measured 72 h later using the Celltiter-Glo Luminescent Cell Viability Assay (Promega).
FIG. 8 provides comparisons of binding and enhanced cell killing by different bispecific antibodies (with various humanized or chimerized heavy or light chain combinations). […] Columns 5-8 (“Binding (293)”, “Binding (293 KO CD47)”, Binding (293 KO CD47, OX ABCB1)”, and “Binding (293 OX ABCB1)”) provide FACS mean fluorescence intensities of antibodies binding to the indicated cell lines compared with non-binding control antibodies: “−”=˜zero, “±”=0 to ˜0.5 Log shift, “+”=˜1 Log shift, “++”=1→2 Log shift (see FIG. 3A for examples of non-binding controls and binding antibodies).

293T naïve cells = test: FACS binding to cells co-expressing Pgp and CD47; parameters: species or system human; conditions: FIG. 4
Protocol: In FIG. 4A-4B, the binding of the bispecific antibody is shown by FACS analysis against a variety of cell lines. The first scan (left panel in FIG. 4A and FIG. 4B) illustrates binding of the antibody to cells co-expressing both targets, (Pgp and CD47). […] FIG. 4A-4B further show binding with titrated antibody concentrations of 600 nM, 200 nM, 66 nM, 7.4 nM and 2 nM, with the signal measured from isotype and no antibody control also provided. The respective antibody concentrations are indicated in the left panel of FIG. 4A and FIG. 4B, and the measured signal from these different concentrations are generally overlapping in the middle and right panels of FIGS. 4A and 4B. FIG. 4A and FIG. 4B represent results obtained from two different batches of antibody.

[1] = system: human red blood cells (RBCs); test: Binding to human erythrocytes; conditions: FIG. 22A; in contrast to anti-CD47 5F9
cynomolgus RBCs = test: Binding to cynomolgus erythrocytes; conditions: FIG. 22B; in contrast to anti-CD47 5F9
MES-SA/Dx5 cells = test: MES-SA/Dx5 subcutaneous tumors in nude mice; type: in vivo
Protocol: Cells: MES-SA/Dx5 cell line (Sigma, catalogue no 95051031) is a uterine sarcoma, derived from parent MES-SA cell line (Sigma, catalogue no 95051030), was used in this study.
Mice: 5-6-week-old female nude mice (Charles River) were used in this study.
All animal maintenance, handling, surveillance, and animal procedures were performed in accordance with and approval from the APLAC protocol.
MES-SA/Dx5 subcutaneous tumors: Once tumors reached 100-150 mm^3, mice were randomized into six groups of five mice each—(i) Control isotype IgG1 3 mg/kg, (ii) Control isotype IgG1 3 mg/kg and 20 mg/kg of paclitaxel, (iii) KNJYBisP1.1 3 mg/kg, (iv) KNJYBisP1.1 3 mg/kg and 20 mg/kg of paclitaxel, (v) KNJYBisP1.1 LALAPG 3 mg/kg and (vi) KNJYBisP1.1 LALAPG 3 mg/kg and 20 mg/kg of paclitaxel. Antibody and paclitaxel were dosed intraperitoneally twice a week for two consecutive weeks. […]

## KBisP1.1: bispecific anti-MDR1/anti-CD47 antibody: 15D3 heavy chain, 5F9 (KT14) heavy chain, common MRK16 light chain, human IgG1
naïve 293T cells; FIG. 5, 6, compared to chemo only
  sensitivity of naïve 293T cells to paclitaxel: enhanced
naïve 293T cells; antibody 25 nM, compared to vincristine alone, FIG. 7
  in vitro killing of naïve 293T with vincristine: enhanced in vitro killing
naïve 293T cells; paclitaxel titration, FIG. 8
  Killing: enhanced 293 naïve cell-killing (sensitization): ++ (≥2 Log shift)
293T naïve cells
  FACS binding when both targets are co-expressed: specific binding
[1]
  binding to human erythrocytes: no significant binding
Cynomolgus RBCs
  binding to cynomolgus erythrocytes: no significant binding
MES-SA/Dx5 cells; 3 mg/kg with paclitaxel 20 mg/kg, FIG. 29
  chemosensitizing effect compared with monospecific antibodies: stronger than either the 15D3 hybridoma or KT14 monoclonal antibodies
MES-SA/Dx5 cells; antibody 3 mg/kg, paclitaxel 20 mg/kg
  chemosensitization of MES-SA/Dx5 tumors to paclitaxel: chemosensitizes
